Measurements: paper PMC6979384, “Characterization of the plant homeodomain (PHD) reader family for their histone tail interactions” (Epigenetics & Chromatin, 2020)

What was measured:
Test in all cases: Histone peptide microarray
Type in all cases: binding, human
ING5 = conditions: GST-tagged ING5; sheet Array Heatmap; each array performed twice, total n = 4
How it was run: (§1)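 Using an optimized microarray protocol, purified GST-tagged PHD fingers were incubated at 0.5 μM on 293 histone peptides with single or multiple modifications, and array signal was recorded as the average of 4 replicates.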

CHD4 (PPCC) = conditions: for Array Heatmap signal (histone peptide microarray): GST-tagged CHD4 (PPCC = Dual PHD + Dual Chromodomain), sheet Array Heatmap, each array performed twice, total n = 4
How it was run: as §1

PHRF1 (RP) = conditions: GST-tagged PHRF1 (RP); sheet Array Heatmap; each array performed twice, total n = 4
How it was run: as §1

PHF8 = conditions: GST-tagged PHF8; sheet Array Heatmap; each array performed twice, total n = 4
How it was run: as §1

PHF21A = conditions: GST-tagged PHF21A; sheet Array Heatmap; each array performed twice, total n = 4
How it was run: as §1

PHF23 = conditions: GST-tagged PHF23; sheet Array Heatmap; each array performed twice, total n = 4
How it was run: as §1

KDM5B (3) = conditions: GST-tagged KDM5B (3); sheet Array Heatmap; each array performed twice, total n = 4
How it was run: as §1

KDM5A (1) = conditions: GST-tagged KDM5A (1); sheet Array Heatmap; each array performed twice, total n = 4
How it was run: as §1

KDM5A (3) = conditions: GST-tagged KDM5A (3); sheet Array Heatmap; each array performed twice, total n = 4
How it was run: as §1

KDM5B (1) = conditions: GST-tagged KDM5B (1); sheet Array Heatmap; each array performed twice, total n = 4
How it was run: as §1

ING3 = conditions: GST-tagged ING3; sheet Array Heatmap; each array performed twice, total n = 4
How it was run: as §1

BAZ2B = conditions: GST-tagged BAZ2B; sheet Array Heatmap; each array performed twice, total n = 4
How it was run: as §1

TAF3 = conditions: GST-tagged TAF3; sheet Array Heatmap; each array performed twice, total n = 4
How it was run: as §1

BPTF (PB) = conditions: GST-tagged BPTF (PB = PHD + Bromodomain); sheet Array Heatmap; each array performed twice, total n = 4
How it was run: as §1

KDM4C (TTP) = conditions: GST-tagged KDM4C (TTP = Tandem Tudor domain + PHD); sheet Array Heatmap; each array performed twice, total n = 4
How it was run: as §1

PHF13 = conditions: GST-tagged PHF13; sheet Array Heatmap; each array performed twice, total n = 4
How it was run: as §1

ING1 = conditions: GST-tagged ING1; sheet Array Heatmap; each array performed twice, total n = 4
How it was run: as §1

ING4 = conditions: GST-tagged ING4; sheet Array Heatmap; each array performed twice, total n = 4
How it was run: as §1

MORC3 (CW) = conditions: GST-tagged MORC3 (CW = CW-type Zn-finger); sheet Array Heatmap; each array performed twice, total n = 4
How it was run: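 GST-tagged PHD readers, 0.5 μM, probed on a microarray of 293 synthetic histone peptides carrying single or combinatorial PTMs (optimized Petell protocol). Signals are averaged over 4 replicates and expressed as relative binding.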

TRIM66 (PB) = conditions: GST-tagged TRIM66 (PB = PHD + Bromodomain); sheet Array Heatmap; each array performed twice, total n = 4
How it was run: as §1

KDM7A = conditions: GST-tagged KDM7A; sheet Array Heatmap; each array performed twice, total n = 4
How it was run: as §1

ING2 = conditions: GST-tagged ING2; sheet Array Heatmap; each array performed twice, total n = 4
How it was run: as §1

DPF2 (PPC2W2) = conditions: GST-tagged DPF2 (PPC2W2 = Dual PHD + C2W2-type Zn-finger); sheet Array Heatmap; each array performed twice, total n = 4
How it was run: as §1

AIRE (PP) = conditions: GST-tagged AIRE (PP); sheet Array Heatmap; each array performed twice, total n = 4
How it was run: as §1

CHD5 (PPCC) = conditions: GST-tagged CHD5 (PPCC = Dual PHD + Dual Chromodomain); sheet Array Heatmap; each array performed twice, total n = 4
How it was run: as §1

CHD5 (PCC) = conditions: GST-tagged CHD5 (PCC = PHD + Dual Chromodomain); sheet Array Heatmap; each array performed twice, total n = 4
How it was run: as §1

Substance | Array Heatmap signal (histone peptide microarray) (ING5) | Array Heatmap signal (histone peptide microarray) (CHD4 (PPCC)) | Array Heatmap signal (histone peptide microarray) (PHRF1 (RP)) | Array Heatmap signal (histone peptide microarray) (PHF8) | Array Heatmap signal (histone peptide microarray) (PHF21A) | Array Heatmap signal (histone peptide microarray) (PHF23) | Array Heatmap signal (histone peptide microarray) (KDM5B (3)) | Array Heatmap signal (histone peptide microarray) (KDM5A (1)) | Array Heatmap signal (histone peptide microarray) (KDM5A (3)) | Array Heatmap signal (histone peptide microarray) (KDM5B (1)) | Array Heatmap signal (histone peptide microarray) (ING3) | Array Heatmap signal (histone peptide microarray) (BAZ2B) | Array Heatmap signal (histone peptide microarray) (TAF3) | Array Heatmap signal (histone peptide microarray) (BPTF (PB)) | Array Heatmap signal (histone peptide microarray) (KDM4C (TTP)) | Array Heatmap signal (histone peptide microarray) (PHF13) | Array Heatmap signal (histone peptide microarray) (ING1) | Array Heatmap signal (histone peptide microarray) (ING4) | Array Heatmap signal (histone peptide microarray) (MORC3 (CW)) | Array Heatmap signal (histone peptide microarray) (TRIM66 (PB)) | further results
H3K9me3: H3 1-20 [Peptide H3K9me3] | 0.3535 | 0.5917 | 0.7596 | 0.3233 | 0.4617 | 0.5665 | 0.5156 | 0.4576 | 0.563 | 0.6712 | 0.491 | 0.4699 | 0.2799 | 0.3464 | 0.4665 | 0.6291 | 0.5591 | 0.4493 | 0.4553 | 0.7052 | relative binding (CHD4 (PPCC); peptide microarray, reader 0.5 μM, n = 4): no difference in binding; Array Heatmap signal (histone peptide microarray) (KDM7A): 0.3458; Array Heatmap signal (histone peptide microarray) (ING2): 0.5901; Array Heatmap signal (histone peptide microarray) (DPF2 (PPC2W2)): 0.7027; Array Heatmap signal (histone peptide microarray) (AIRE (PP)): 0.4645; Array Heatmap signal (histone peptide microarray) (CHD5 (PPCC)): 0.5526; Array Heatmap signal (histone peptide microarray) (CHD5 (PCC)): 0.824
H3S10p: H3 1-20 [Peptide H3S10p] | 0.3966 | 0.6003 | 0.5714 | 0.4129 | 0.5054 | 0.5413 | 0.5217 | 0.5146 | 0.4717 | 0.6981 | 0.4878 | 0.5109 | 0.3504 | 0.3684 | 0.5402 | 0.646 | 0.5325 | 0.4889 | 0.4872 | 0.7641 | Array Heatmap signal (histone peptide microarray) (KDM7A): 0.4084; Array Heatmap signal (histone peptide microarray) (ING2): 0.606; Array Heatmap signal (histone peptide microarray) (DPF2 (PPC2W2)): 0.7013; Array Heatmap signal (histone peptide microarray) (AIRE (PP)): 0.7118; Array Heatmap signal (histone peptide microarray) (CHD5 (PPCC)): 0.5995; Array Heatmap signal (histone peptide microarray) (CHD5 (PCC)): 0.8638
